Data on five compounds can be found in patent publication US20070232492A1, “Herbicidal Composition” (Ishihara Sangyo Kaisha, LTD., priority 2004, published 2007).

Test [1] relates to Japanese bulrush (Scirpus juncoides). Description: Growth inhibition of Japanese bulrush in paddy soil pots, application under submerged condition, visual rating and Colby expected value. It is filed as in vivo.
Source text: (§1) When the herbicidal activity in a case where two active ingredients are combined, is larger than the simple sum of the respective herbicidal activities of the two active ingredients (the expected activity), it is called a synergistic effect. The activity expected by the combination of two active ingredients can be calculated as follows (Colby S. R., “Weed”, vol. 15, p. 20-22, 1967). E=p+q−(p×q÷100) where p: growth inhibition rate when treated with x (g/a) of herbicide X,
(§2) q: growth inhibition rate when treated with y (g/a) of herbicide Y,
(§3) E: growth inhibition rate expected when treated with x (g/a) of herbicide X and y (g/a) of herbicide Y.
(§4) Namely, when the actual growth inhibition rate (observed value) is larger than the growth inhibition rate by the above calculation (expected value), the activity by the combination can be regarded as showing a synergistic effect.
(§5) Growth inhibition rate (%)=0% (equivalent to the non-treated area) to 100% (complete kill)
(§6) Paddy field soil was put into a 1/10,000 are pot, and seeds of Japanese bulrush (Scirpus juncoides) were sown and left to stand under an irrigated condition with a water depth of 3.5 cm. When Japanese bulrush reached 2.3 to 2.6 leaf stage, a wettable powder of compound A2 and granules of compound (B7.1) were, respectively, diluted with water and applied under submerged condition so that the active ingredients became the prescribed amounts, respectively. The state of growth was visually observed 10 days after application, and evaluation and calculation were carried out in the same manner as in the above Test Example 1.
as §6, with “an emulsifiable concentrate” for “granules”, “(B3.1)” for “(B7.1)”
Paddy field soil was put into a 1/10,000 are pot, and seeds of Japanese bulrush (Scirpus juncoides) were sown and left to stand under an irrigated condition with a water depth of 3.5 cm. When Japanese bulrush reached 2 leaf stage, wettable powders of compound A2, C2 and C4 and granules of compound C6 were, respectively, diluted with water and applied under submerged condition so that the active ingredients became the prescribed amounts, respectively.
Paddy field soil was put into a 1/10,000 are pot, and seeds of Japanese bulrush (Scirpus juncoides) were sown and left to stand under an irrigated condition with a water depth of 3.5 cm. When Japanese bulrush reached 2 leaf stage, wettable powders of compound A2, C2 and C4 and granules of compound C6 were, respectively, diluted with water and applied under submerged condition so that the active ingredients became the prescribed amounts, respectively. The state of growth was visually observed 19 days after application, and the growth inhibition rate (%) evaluated in the same manner as in the above Test Example 1 (observed value) and the growth inhibition rate (%) calculated by the above-mentioned Colby method (expected value) are shown in Tables 36, 37 and 38.
Paddy field soil was put into a 1/10,000 are pot, and seeds of Japanese bulrush (Scirpus juncoides) were sown and left to stand under an irrigated condition with a water depth of 3.5 cm. When Japanese bulrush reached 3 leaf stage, wettable powders of compound A2 and compound (D2.2) were, respectively, diluted with water and applied under submerged condition so that the active ingredients became the prescribed amounts, respectively. […]

Test [2] relates to barnyardgrass (Echinochloa oryzicola vasing). Description: Growth inhibition of barnyardgrass in paddy soil pots, application under submerged condition, visual rating (observed value) and Colby expected value. It is filed as in vivo. The settings on record: for inhibition at 225 g/ha: read-out: Growth inhibition rate (%) Observed, 2.25 g/a.
Source text: as §1, §2, §3, §4
Paddy field soil was put into a 1/10,000 are pot, and seeds of barnyardgrass (Echinochloa oryzicola vasing) were sown and left to stand under an irrigated condition with a water depth of 3.5 cm. When barnyardgrass reached 2.0 to 2.5 leaf stage, wettable powders of compound A2 and compound (B1.1) were, respectively, diluted with water and applied under submerged condition so that the active ingredients became the prescribed amounts, respectively. The state of growth was visually observed 21 days after application, and the growth inhibition rate (%) evaluated in accordance with the following evaluation standard (observed value) and the growth inhibition rate (%) calculated by the above-mentioned Colby method (expected value) are shown in Table 1.
as §5
(§7) Paddy field soil was put into a 1/10,000 are pot, and seeds of barnyardgrass (Echinochloa oryzicola vasing) were sown and left to stand under an irrigated condition with a water depth of 3.5 cm. When barnyardgrass reached 2.0 to 2.5 leaf stage, wettable powders of compound A2 and compound (B2.1) were, respectively, diluted with water and applied under submerged condition so that the active ingredients became the prescribed amounts, respectively. The state of growth was visually observed 21 days after application, and evaluation and calculation were carried out in the same manner as in the above Test Example 1.
as §7, with “leaf stage, a wettable powder” for “leaf stage, wettable powders”, “a wettable powder of compound” for “stage, wettable powders of compound”, “A2 and an emulsifiable concentrate of compound (B3.1)” for “A2 and compound (B2.1)”, “of compound (B3.1) were, respectively,” for “and compound (B2.1) were, respectively,”
as §7, with “(B4.1)” for “(B2.1)”
Paddy field soil was put into a 1/10,000 are pot, and seeds of barnyardgrass (Echinochloa oryzicola vasing) were sown and left to stand under an irrigated condition with a water depth of 3.5 cm. […]

Where [3] appears, read: 0.5 g/a, 2 leaf stage, 19 days after application, Test Example 33.
Setting [4] is: 1.0 g/a, 2 leaf stage, 19 days after application, Test Example 33.
Where [5] appears, read: 1.5 g/a, 2 leaf stage, 19 days after application, Test Example 34.
Setting [6] is: 2.0 g/a, 2 leaf stage, 19 days after application, Test Example 33.
[7] abbreviates: 3.75 g/a, 2 leaf stage, 19 days after application, Test Example 34.
Where [8] appears, read: 10 g/a, 2 leaf stage, 19 days after application, Test Example 34.

Read-outs that look alike come from different tables or passages of the source.

For the compound `CCOC(=O)COc1ccc(Cl)cc1C` [Compound C2, MCP ethyl], the “Growth inhibition rate (%) Observed” value in test [1] (setting [3]) is recorded as 13%; in test [1] (setting [4]), 23%; in test [1] (setting [5]), 20%; in test [1] (setting [6]), 35%; in test [1] (setting [7]), 45%; in test [1] (setting [8]) it was 68%.

On to `CCNc1nc(NCC)nc(SC)n1` [Compound (B5.1), simetryn], for which the inhibition at 169 g/ha in test [2] (Echinochloa oryzicola, soil, 504 h, read-out: Growth inhibition rate (%) Observed, 1.69 g/a, 1.0 to 3.0 leaf stage, 21 days after application) worked out at 3%. In addition, the inhibition at 225 g/ha turned out to be 2% in test [2] (Echinochloa oryzicola, soil, 504 h, 2.0 to 2.5 leaf stage, 21 days after application) and 5% in test [2] (Echinochloa oryzicola, soil, 696 h, 2.4 to 3.2 leaf stage, 29 days after application, Test Example 45). Also, the inhibition at 338 g/ha in test [2] (Echinochloa oryzicola, soil, 504 h, read-out: Growth inhibition rate (%) Observed, 3.38 g/a, 1.0 to 3.0 leaf stage, 21 days after application) was determined as 10%. Further, the inhibition at 450 g/ha in test [2] (Echinochloa oryzicola, soil, 504 h, read-out: Growth inhibition rate (%) Observed, 4.5 g/a, 2.0 to 2.5 leaf stage, 21 days after application) came out at 5%; in test [1] (Schoenoplectiella juncoides, soil, 696 h, read-out: Growth inhibition rate (%) Observed) it was 25%.

As to `COc1cc(OC)nc(NC(=O)NS(=O)(=O)c2cccnc2C(O)C(C)F)n1` (stereo not shown) [Compound A1], the “Growth inhibition rate (%) Observed” value in test [2] (0.083 g/a, 1.0 to 3.0 leaf stage, 21 days after application) came out at 83%; in test [2] (0.083 g/a, 2.8 to 3.2 leaf stage, 19 days after application, Test Examples 62-65), 55%; in test [2] (0.083 g/a, 2.8 to 3.2 leaf stage, 21 days after application, Test Examples 39-43) it was 57%; in test [2] (0.083 g/a, 2.8 to 3.4 leaf stage, 14 days after application, Test Examples 66-72), 40%; in test [2] (0.083 g/a, 3.0 to 3.3 leaf stage, 21 days after application) it was 43%; in test [2] (0.11 g/a, 1.0 to 3.0 leaf stage, 21 days after application) it was 97%. Besides, the “Growth inhibition rate (%) Observed” value in test [2] (0.11 g/a, 2.8 to 3.2 leaf stage, 19 days after application, Test Examples 62-65) is 93%; in test [2] (0.11 g/a, 2.8 to 3.2 leaf stage, 21 days after application, Test Examples 39-43), 67%; in test [2] (0.11 g/a, 2.8 to 3.4 leaf stage, 14 days after application, Test Examples 66-72) it was 53%; in test [2] (0.11 g/a, 3.0 to 3.3 leaf stage, 21 days after application) it was 60%; in test [2] (0.165 g/a, 1.0 to 3.0 leaf stage, 21 days after application), 98%; in test [2] (0.165 g/a, 2.8 to 3.2 leaf stage, 19 days after application, Test Examples 62-65), 94%. The “Growth inhibition rate (%) Observed” value in test [2] (0.165 g/a, 2.8 to 3.2 leaf stage, 21 days after application, Test Examples 39-43) amounted to 78%; in test [2] (0.165 g/a, 2.8 to 3.4 leaf stage, 14 days after application, Test Examples 66-72), 70%; in test [2] (0.165 g/a, 3.0 to 3.3 leaf stage, 21 days after application), 75%; in test [1] (0.11 g/a, 3.8 to 4.2 leaf stage, 21 days after application, Test Example 61), 65%.

Turning to `CC(C)N1C(=O)c2ccccc2NS1(=O)=O` [Compound (B7.1), bentazone], the inhibition at 3300 g/ha in test [2] (Echinochloa oryzicola, soil, 504 h, 33 g/a, 3.0 to 3.3 leaf stage, 21 days after application, read-out: Growth inhibition rate (%) Observed) is 0%. The inhibition at 4400 g/ha in test [2] (Echinochloa oryzicola, soil, 504 h, 44 g/a, 3.0 to 3.3 leaf stage, 21 days after application, read-out: Growth inhibition rate (%) Observed) is 0%. Moreover, the inhibition at 413 g/ha in test [1] (Schoenoplectiella juncoides, soil, 240 h, 4.13 g/a, 2.3 to 2.6 leaf stage, 10 days after application, read-out: Growth inhibition rate (%) Observed) stood at 10%. In test [1] (Schoenoplectiella juncoides, soil, 240 h, 8.25 g/a, 2.3 to 2.6 leaf stage, 10 days after application, read-out: Growth inhibition rate (%) Observed), the inhibition at 825 g/ha worked out at 10%. The inhibition at 1650 g/ha in test [1] (Schoenoplectiella juncoides, soil, 240 h, 16.5 g/a, 2.3 to 2.6 leaf stage, 10 days after application, read-out: Growth inhibition rate (%) Observed) came to 13%. For the same compound, in test [1] (Schoenoplectiella juncoides, soil, 504 h, 7.5 g/a, 3.8 to 4.2 leaf stage, 21 days after application, Test Example 61, read-out: Growth inhibition rate (%) Observed), the inhibition at 750 g/ha was 98%.

Turning to `CCOC(=O)COc1ccc(Cl)cc1Cl` [Compound C6, 2,4-D ethyl], the “Growth inhibition rate (%) Observed” value stood at 23% in test [1] (setting [3]); 33% in test [1] (setting [4]); 20% in test [1] (setting [5]); 53% in test [1] (setting [6]); 45% in test [1] (setting [7]); 68% in test [1] (setting [8]).
